From patent publication US9533994B2, “Monoclinic crystalline form of asenapine maleate with a specific particle size distribution” (Laboratorios Lesvi S.L., priority 2011, dated 2017)
Structures can show the parent of a compound that is named as a salt.

Experiments:
[1] = Particle Size Distribution (PSD) by Laser Diffraction Spectrometry (Malvern Mastersizer 2000); type: physicochemical; settings: sample in heptane with 0.2% Span-20, by volume
Description: Laser Diffraction Spectrometry (LDS) was used to determine the Particle Size Distribution (PSD). The samples were prepared by mixing 100 mg of asenapine maleate with 5 mL of heptane that contains 0.2% of Span-20. Ultrasonic treatment of the samples was performed for 5 minutes and the PSD was analysed using a particle size analyzer Malvern Mastersizer 2000. Refractive index of asenapine 1.800 and absorption 0.01.

[2] = Outcome of micronisation of asenapine maleate crystals; type: physicochemical; settings: micronised crystals, prepared as disclosed in U.S. Pat. No. 4,145,434
Description: As described in Funke et al., Arzneim.-Forsch./Drug Res., 40:536-539 (1990), asenapine maleate (Form H) was the first known polymorphic form. Form H is a monoclinic crystalline form having a melting point in the range of 141° C. to 145° C. EP 1 710 245 B1 and EP 1 917 267 B1 described the discovery of a new form of asenapine maleate (Form L), which is an orthorhombic crystalline form having a melting point in the range of 138° C. to 142° C. EP 1 710 245 131 and EP 1 917 267 B1 mention the importance of asenapine particle size since asenapine commercial sublingual tablets are dissolved in the mouth. Thus, particles having a size distribution characterized by a d95 (95% volume of the particles are smaller than or equal to the indicated size) of about 100 μm or less, more preferably about 50 μm or less, and even more preferably about 30 μm or less, is desirable for sublingual formulations. According to EP 1 710 245 B1 and EP 1 917 267 B1, the outcome of the micronisation process used therein, and which is necessary to reduce the particle size of crystals, appeared to be unpredictable when crystals of monoclinic form of asenapine maleate were subjected to the micronisation process. […]

[3] = micronised, per EP 1 710 245 B1 and EP 1 917 267 B1; cited from earlier work

| Structure (SMILES) | PSD d90 [1] [μm] | PSD d95 [1] [μm] | polymorphic stability after micronisation [2] | d95 after micronisation [3] [μm] |
| --- | --- | --- | --- | --- |
| CN1C[C@@H]2c3ccccc3Oc3ccc(Cl)cc3[C@H]2C1 (racemic) [Example 8, asenapine maleate] | 54 | 68 | – | – |
| CN1C[C@@H]2c3ccccc3Oc3ccc(Cl)cc3[C@H]2C1 (racemic) [Example 6, asenapine maleate] | 46 | 56 | – | – |
| CN1C[C@@H]2c3ccccc3Oc3ccc(Cl)cc3[C@H]2C1 (racemic) [Example 3, asenapine maleate] | 31 | 37 | – | – |
| CN1C[C@@H]2c3ccccc3Oc3ccc(Cl)cc3[C@H]2C1 (racemic) [Example 5, asenapine maleate] | 29 | 35 | – | – |
| CN1C[C@@H]2c3ccccc3Oc3ccc(Cl)cc3[C@H]2C1 (racemic) [Example 4, asenapine maleate] | 21 | 28 | – | – |
| CN1C[C@@H]2c3ccccc3Oc3ccc(Cl)cc3[C@H]2C1 (racemic) [monoclinic form of asenapine maleate, asenapine maleate] | – | – | not stable and eventually evolved to the orthorhombic crystalline form | – |
| CN1C[C@@H]2c3ccccc3Oc3ccc(Cl)cc3[C@H]2C1 (racemic) [asenapine maleate] | – | – | – | ≤ 30 |
| CN1C[C@@H]2c3ccccc3Oc3ccc(Cl)cc3[C@H]2C1 (racemic) [Example 7, asenapine maleate] | 36 | 48 | – | – |
| CN1C[C@@H]2c3ccccc3Oc3ccc(Cl)cc3[C@H]2C1 (racemic) [Example 2, asenapine maleate] | 15 | 20 | – | – |
| CN1C[C@@H]2c3ccccc3Oc3ccc(Cl)cc3[C@H]2C1 (racemic) [Example 1, asenapine maleate] | 16 | 24 | – | – |

Further lines, with some results ahead:

| PSD d90 [1] [μm] | PSD d95 [1] [μm] | Structure (SMILES) | polymorphic stability after micronisation [2] | d95 after micronisation [3] [μm] |
| --- | --- | --- | --- | --- |
| 37 | 49 | CN1C[C@@H]2c3ccccc3Oc3ccc(Cl)cc3[C@H]2C1 (racemic) [Example 10, asenapine maleate] | – | – |
| 17 | 21 | CN1C[C@@H]2c3ccccc3Oc3ccc(Cl)cc3[C@H]2C1 (racemic) [Example 11, asenapine maleate] | – | – |
| 23 | 28 | CN1C[C@@H]2c3ccccc3Oc3ccc(Cl)cc3[C@H]2C1 (racemic) [Example 9, asenapine maleate] | – | – |
| 53 | 120 | CN1C[C@@H]2c3ccccc3Oc3ccc(Cl)cc3[C@H]2C1 (racemic) [Example 12, asenapine maleate] | – | – |
| 31 | 38 | CN1C[C@@H]2c3ccccc3Oc3ccc(Cl)cc3[C@H]2C1 (racemic) [Example 13, asenapine maleate] | – | – |
